SMILES strings stand for the structures.

What is called IC50 is the concentration that inhibits the measured activity by half.

One test addresses T1, NMDA receptor (Rattus norvegicus, UniProt P35439).
T1 construct: After the rats were decapitated, the prefrontal cortex and hippocampus were rapidly separated on ice; from tissue; host or cells: SD male rat prefrontal cortex and hippocampus, crude synaptosomes
The test is described as follows: NMDA receptor agonistic properties in rat crude synaptosomal proteins (maximum [3H]-MK-801 binding vs 1 mM glycine). It counts as biochemical. Conditions: maximum [3H]-MK-801 binding % relative to 1 mM glycine; 50 μM glutamic acid. The procedure: (§1) After the rats were decapitated, the prefrontal cortex and hippocampus were rapidly separated on ice and weighed, 10 volumes of 50 mM Tris-HCl buffer (50 mM Tris-HCl, 5 mM MgCl2·6H2O, 1 mM EDTA, 0.5% (W/V) BSA, 1 mM PMSF, 0.32 M sucrose, pH 7.4) was added, and the mixture was homogenized for five times at 1500 revolutions/min with 30 s each time. A homogenate was centrifuged for 10 min at 1000×g, and a supernatant was taken and centrifuged for 10 min at 40,000×g, the precipitates were collected, re-suspended with volumes of Tris-HCl buffer, incubated at 37° C. for 10 min, and centrifuged for 10 min at 40,000×g, finally the precipitates were re-suspended with the above buffer, aliquoted and stored at −80° C. for later use.
(3) Detection of Influence of Tested Medicines on NMDA Receptor Agonistic Properties in Rat Crude Synaptosomal Proteins
100 μg of rat crude synaptosomal proteins was added to all tubes respectively. 50 μl of 5,7-dichlorokynurenic acid was added to a non-specific binding tube to achieve a final concentration of 10 μM. All tubes were preloaded with 50 μM of glutamic acid, and the materials were reacted for 15 min in advance. 20 μL of control drug at corresponding concentration was added to the test tube, and then reacted for 15 min. 1 mM glycine was added to the maximum reaction tube. A volume of 30 μl of labeled ligand [^3H]-MK-801 was successively added to all tubes to achieve a final concentration of 10 nM, and reacted for 15 min. All reaction tubes were supplemented to a volume of 500 μl with 50 mM Tris-HCl buffer (50 mM Tris-HCl, 5 mM MgCl2·6H2O, 1 mM EDTA, 0.5% (WN) BSA, 0.1% NaN3, pH 7.4). A reaction was carried out at 37° C. for 15 min. A type-49 glass fiber filter membrane was prepared and a sample was applied at the same time. The filter membrane was placed in a multi-head cell collector, and the reaction system was subjected to suction filtration under negative pressure and washed with an ice-cold 50 mM Tris-HCl buffer, 10 ml each time, for a total of 5 times. After suction drying, 1 ml of scintillation liquid was added to the filter membrane, the filter membrane was placed on the shaker for shaking for 1.5 h and then placed in the liquid scintillation counter on the next day to determine the radioactive intensity.
In an agonistic experiment, maximum [^3H]-MK-801 binding %=((tested compounds cpm−5,7 dichlorokynurenic acid cpm)/(1 mM glycine cpm−5,7 dichlorokynurenic acid cpm))×100%.
For `Cl.N[C@@H](CO)C(=O)N1CC2(C1)SCCN2Cc1ccccc1` [A-195], the “Maximum agonistic efficacy (%)” value is listed as 46%.

In the case of `C[C@@H](O)[C@H](N)C(=O)N1CC2(C1)SCCN2C.Cl` [A-226], the “Maximum agonistic efficacy (%)” value is on record as 45%.

`C[C@@H](O)[C@H](N)C(=O)N1CCC2(C1)SCCN2C.Cl` (stereo partly drawn) [A-234]: the “Maximum agonistic efficacy (%)” value worked out at 75%.

Consider `CC(C)C(=O)N1CC2(C1)N[C@H](C(N)=O)CS2` [A-256], for which the “Maximum agonistic efficacy (%)” value came out at 28%.

For the molecule `C[C@@H](O)[C@H](N)C(=O)N1CCC2(C1)N[C@H](C(N)=O)CS2.Cl` (stereo partly drawn) [A-266], the “Maximum agonistic efficacy (%)” value was 45%.

In the case of `CC(C)C(=O)N1CCC2(CC1)N[C@H](C(N)=O)CS2` [A-272], the “Maximum agonistic efficacy (%)” value came out at 19%.

Take `Cl.NC(=O)[C@@H]1CSC2(CCN(C(=O)[C@@H](N)CO)CC2)N1` [A-275]: the “Maximum agonistic efficacy (%)” value is 12%.

Consider `CC(C)[C@H](N)C(=O)N1CCC2(CC1)N[C@H](C(N)=O)CS2.Cl` [A-276], for which the “Maximum agonistic efficacy (%)” value was found to be 28%.

With `C[C@@H](O)[C@H](N)C(=O)N1CCCC2(C1)N[C@H](C(N)=O)CS2.Cl` (stereo partly drawn) [A-282], the “Maximum agonistic efficacy (%)” value is recorded as 35%.

On to `COC(=O)[C@@H]1CSC2(CCN(C(=O)[C@@H](N)[C@@H](C)O)CC2)N1.Cl` [A-291], for which the “Maximum agonistic efficacy (%)” value was found to be 13%.

`Cl.N#C[C@@H]1CSC2(CN(C(=O)[C@@H](N)CO)C2)N1` [A-303]: the “Maximum agonistic efficacy (%)” value came to 35%.

In the case of `CC(C)[C@H](N)C(=O)N1CCSC12CNC2.Cl` [A-329], the “Maximum agonistic efficacy (%)” value is 26%.

`CC(C)[C@H](N)C(=O)N1CCSC12CN(C(=O)[C@@H](N)[C@@H](C)O)C2.Cl` [A-331]: the “Maximum agonistic efficacy (%)” value is listed as 31%.

With `CC(=O)N1CC2(C1)N[C@H](C(=O)N[C@@H](CO)C(N)=O)CS2` [A-333], the “Maximum agonistic efficacy (%)” value is on record as 19%.

In the case of `NC(=O)C(CO)NC(=O)C1CSC2(CN(C(=O)C(N)CO)C2)N1` (stereo not drawn) [A-334], the “Maximum agonistic efficacy (%)” value worked out at 34%.

With `CC(=O)N1[C@H](C(N)=O)CSC12CN(C(=O)[C@@H](N)C(C)O)C2.Cl` (stereo partly drawn) [A-335], the “Maximum agonistic efficacy (%)” value was found to be 42%.

As for `CC(=O)N1CC2(C1)SCCN2C(=O)[C@@H](N)CC(N)=O.Cl` [A-342], the “Maximum agonistic efficacy (%)” value was determined as 32%.

Regarding `C[C@@H](O)[C@H](N)C(=O)N1CCC2(C1)SCCN2C(=O)[C@@H](N)[C@@H](C)O.Cl` (stereo partly drawn) [A-353], the “Maximum agonistic efficacy (%)” value stood at 53%.

Regarding `CC(C)C(=O)N1CCC2(CC1)SCCN2C(=O)[C@@H](N)[C@@H](C)O.Cl` [A-358], the “Maximum agonistic efficacy (%)” value came to 78%.

As for `C[C@@H](O)[C@H](N)C(=O)N1CCCC2(C1)SCCN2C(=O)[C@@H](N)[C@@H](C)O.Cl` (stereo partly drawn) [A-367], the “Maximum agonistic efficacy (%)” value came out at 39%.

Regarding `C[C@@H](O)[C@H](NC(=O)[C@@H]1CSC2(CNC2)N1)C(N)=O.Cl` [A-370], the “Maximum agonistic efficacy (%)” value worked out at 46%.

The target of the next test is T1, NMDA receptor. The test is described as follows: Inhibition of [3H]-MK-801 binding to rat crude synaptosomes (receptor ligand binding assay).
Conditions: not given
The procedure: The affinity of the tested compounds on NMDA receptor was researched by receptor ligand binding assays.
Ten SD male rats of SPF grade were ordered and acclimated for 7 days for future use.
as §1
(2) Detection of Inhibitory Function of Tested Medicines on Binding of Crude Synaptosomes in Rats to [^3H]-MK-801
50 μg of rat crude synaptosomal proteins was added to all tubes respectively. A volume of 50 μl of MK-801 (dizocilpine) was added to a non-specific binding tube to achieve a final concentration of 100 μM, and the materials were reacted for 15 min in advance. 20 μL of control drug at corresponding concentration was added to the test tube for reaction for 15 min. A volume of 30 μl of labeled ligand [^3H]-MK-801 was successively added to all tubes to achieve a final concentration of 10 nM. All reaction tubes were supplemented to a volume of 200 μl with 50 mM Tris-HCl buffer (50 mM Tris-HCl, 5 mM MgCl2·6H2O, 1 mM EDTA, 0.5% (WN) BSA, 0.1% NaN3, pH 7.4). A reaction was carried out at 37° C. for 10 min. A type-49 glass fiber filter membrane was prepared and a sample was applied at the same time. The filter membrane was placed in a multi-head cell collector, and a reaction system was subjected to suction filtration under negative pressure and washed with an ice-cold 50 mM Tris-HCl buffer, 10 ml each time, for a total of 5 times. After suction drying, 1 ml of scintillation liquid was added to the filter membrane, the filter membrane was placed on a shaker for shaking for 1.5 h and then placed in a liquid scintillation counter on the next day to determine the radioactive intensity.
GraphPad5.0 software was used to analyze the data, and the percentage of competitive inhibition was calculated through nonlinear fitting, wherein:
Percentage of competitive inhibition %=((total binding tube cpm−compound cpm)/(total binding tube cpm−non-specific binding tube cpm))×100%;
Specific binding amount=total binding amount−non-specific binding amount, wherein each binding site was determined by double compound tubes.
Consider `CC(C)[C@H](N)C(=O)N1CCSC12CNC2.Cl` [A-329], for which the IC50 was 0.73 nM.

For the molecule `C[C@@H](O)[C@H](NC(=O)[C@@H]1CSC2(CNC2)N1)C(N)=O.Cl` [A-370], the IC50 worked out at 0.36 nM.

The same test, now with this note: affinity on NMDA; [3H]-MK-801 10 nM, rat prefrontal cortex and hippocampus crude synaptosomes; read-out: IC50.
For the molecule `Cl.N[C@@H](CO)C(=O)N1CC2(C1)SCCN2Cc1ccccc1` [A-195], the IC50 turned out to be 0.43 nM.

On to `C[C@@H](O)[C@H](N)C(=O)N1CC2(C1)SCCN2C.Cl` [A-226], for which the IC50 is 0.33 nM.

In the case of `C[C@@H](O)[C@H](N)C(=O)N1CCC2(C1)SCCN2C.Cl` (stereo partly drawn) [A-234], the IC50 stood at 1.58 nM.

Regarding `CC(C)C(=O)N1CC2(C1)N[C@H](C(N)=O)CS2` [A-256], the IC50 was found to be 0.89 nM.

On to `C[C@@H](O)[C@H](N)C(=O)N1CCC2(C1)N[C@H](C(N)=O)CS2.Cl` (stereo partly drawn) [A-266], for which the IC50 was 3.2 nM.

Consider `CC(C)C(=O)N1CCC2(CC1)N[C@H](C(N)=O)CS2` [A-272], for which the IC50 is 0.54 nM.

With `Cl.NC(=O)[C@@H]1CSC2(CCN(C(=O)[C@@H](N)CO)CC2)N1` [A-275], the IC50 is 0.35 nM.

`CC(C)[C@H](N)C(=O)N1CCC2(CC1)N[C@H](C(N)=O)CS2.Cl` [A-276]: the IC50 amounted to 0.25 nM.

Consider `C[C@@H](O)[C@H](N)C(=O)N1CCCC2(C1)N[C@H](C(N)=O)CS2.Cl` (stereo partly drawn) [A-282], for which the IC50 amounted to 0.32 nM.

Turning to `COC(=O)[C@@H]1CSC2(CCN(C(=O)[C@@H](N)[C@@H](C)O)CC2)N1.Cl` [A-291], the IC50 was found to be 0.88 nM.

Regarding `Cl.N#C[C@@H]1CSC2(CN(C(=O)[C@@H](N)CO)C2)N1` [A-303], the IC50 was determined as 0.24 nM.

Regarding `CC(C)[C@H](N)C(=O)N1CCSC12CN(C(=O)[C@@H](N)[C@@H](C)O)C2.Cl` [A-331], the IC50 came out at 0.59 nM.

Consider `CC(=O)N1CC2(C1)N[C@H](C(=O)N[C@@H](CO)C(N)=O)CS2` [A-333], for which the IC50 was 0.41 nM.

Consider `NC(=O)C(CO)NC(=O)C1CSC2(CN(C(=O)C(N)CO)C2)N1` (stereo not drawn) [A-334], for which the IC50 came out at 0.38 nM.

For the molecule `CC(=O)N1[C@H](C(N)=O)CSC12CN(C(=O)[C@@H](N)C(C)O)C2.Cl` (stereo partly drawn) [A-335], the IC50 stood at 0.48 nM.

In the case of `CC(=O)N1CC2(C1)SCCN2C(=O)[C@@H](N)CC(N)=O.Cl` [A-342], the IC50 came out at 0.56 nM.

Turning to `C[C@@H](O)[C@H](N)C(=O)N1CCC2(C1)SCCN2C(=O)[C@@H](N)[C@@H](C)O.Cl` (stereo partly drawn) [A-353], the IC50 came out at 0.48 nM.

With `CC(C)C(=O)N1CCC2(CC1)SCCN2C(=O)[C@@H](N)[C@@H](C)O.Cl` [A-358], the half-inhibitory concentration (IC50) came out at 0.86 nM.

For `C[C@@H](O)[C@H](N)C(=O)N1CCCC2(C1)SCCN2C(=O)[C@@H](N)[C@@H](C)O.Cl` (stereo partly drawn) [A-367], the IC50 amounted to 0.29 nM.
